# Data reported in patent publication US20230271947A1, “SALT AND CRYSTAL FORM OF KETOHEXOKINASE INHIBITOR AND USE THEREOF” (SHANDONG XUANZHU PHARMA CO., LTD., priority 2020, published 2023).
# Test: Stability investigation of crystal forms A, B, C, D and the amorphous form of the compound of formula (1) (related substances by HPLC, moisture, XRD, DSC)
# Format: physicochemical
# Conditions: for Stability, testing conclusion: under the above conditions (all placement conditions of the study)
# Method: (§1) 2.1 Investigation conditions for the crystal form A of the compound of formula (1): • placed at 105° C. for 5 days, opened, and sampled for testing on day 5; • placed at 60° C. for 10 days, opened/closed, and sampled for testing on day 10; • placed at 25° C. and RH 92.5% for 10 days, opened/closed, and sampled for testing on day 10; • placed at 40° C. and RH 75% for one month, opened/closed, and sampled for testing on the last day of the month; and • under illumination, employing a closed way (polyethylene bag + composite film bag) to meet illumination requirements, and sampled for testing.
# Illumination requirements: ICH Q1B Stability Testing: Photostability Testing of New Drug Substances and Products.
# Determination of related substances: determined according to 0512 HPLC in General Principle (Volume IV) of Chinese Pharmacopoeia (2015 Version).
# Moisture determination: determined according to 2 Coulometric Titration in the First Method (Karl Fischer titration) of 0832 Moisture Determination Method in General Principle (Volume IV) of Chinese Pharmacopoeia (2015 Version).
# XRD determination: determined according to the Second Method-Powder X-ray Diffraction Method of 0451 X-ray Diffraction Method in General Principle (Volume IV) of Chinese Pharmacopoeia (2015 Version).
# DSC determination: precisely weighing an appropriate amount of sample in a Standard disc, covering the Standard disc, placing the Standard disc in a sample disc position in a DSC furnace, placing a blank disc of the same type in a reference position, and carrying out the following temperature rise program:
# 1. Equilibrate at 25° C.; and
# as §1, with “B” for “A”
# as §1, with “C” for “A”
# 1. Equilibrate at 25° C.; and 2. Ramp 10° C. to 200° C.
# as §1, with “D” for “A”
# as §1, with “amorphous” for “crystal”, “form” for “form A”, “(1):” for “(1): • placed at 105° C. for 5 days, opened, and sampled for testing on day 5;”
# [1] = 25° C., RH 92.5%, closed, 10 days
# [2] = 25° C., RH 92.5%, opened, 10 days
smiles,measurement,setting,value
"C[C@H]1CCN1c1nc(N2C[C@@H]3[C@@H](CC(=O)O)[C@@H]3C2)c2c(n1)C(F)(F)CC2 [Amorphous form, 2-((1R,5S,6R)-3-(7,7-difluoro-2-((S)-2-methylazetidin-1-yl)-6,7-dihydro-5H-cyclopenta[d]pyrimidin-4-yl)-3-azabicyclo[3.1.0]hexan-6-yl)acetic acid]",Moisture %,0 day,0.70%
same,Total related %,0 day,0.21%
same,Trait,0 day,Off-white power
same,Moisture %,[1],2.8%
same,Total related %,[1],0.35%
same,Trait,[1],Off-white power
same,Moisture %,[2],3.1%
same,Total related %,[2],0.38%
same,Trait,[2],Off-white power
same,Moisture %,"40° C., RH 75%, closed, 1 M",2.1%
same,Total related %,"40° C., RH 75%, closed, 1 M",2.98%
same,Trait,"40° C., RH 75%, closed, 1 M",Off-white power
same,Moisture %,"40° C., RH 75%, opened, 1 M",1.9%
same,Total related %,"40° C., RH 75%, opened, 1 M",2.86%
same,Trait,"40° C., RH 75%, opened, 1 M",Off-white power
same,Moisture %,"60° C., closed, 10 days",0.73%
same,Total related %,"60° C., closed, 10 days",3.92%
same,Trait,"60° C., closed, 10 days",Off-white power
same,Moisture %,"60° C., opened, 10 days",0.56%
same,Total related %,"60° C., opened, 10 days",4.30%
same,Trait,"60° C., opened, 10 days",Off-white power
same,Moisture %,Avoid light for 18 days,1.26%
same,Total related %,Avoid light for 18 days,0.42%
same,Trait,Avoid light for 18 days,Off-white power
same,"Stability, testing conclusion",,"less stable than that of the crystal form A, the crystal form B, the crystal form C and the crystal form D"
"C[C@H]1CCN1c1nc(N2C[C@@H]3[C@@H](CC(=O)O)[C@@H]3C2)c2c(n1)C(F)(F)CC2 [Crystal form A, 2-((1R,5S,6R)-3-(7,7-difluoro-2-((S)-2-methylazetidin-1-yl)-6,7-dihydro-5H-cyclopenta[d]pyrimidin-4-yl)-3-azabicyclo[3.1.0]hexan-6-yl)acetic acid]",DSC,0 day,170.33 °C
same,Moisture %,0 day,0.53%
same,Total related %,0 day,0.18%
same,Trait,0 day,Off-white power
same,DSC,[1],170.42 °C
same,Moisture %,[1],0.54%
same,Total related %,[1],0.24%
same,Trait,[1],Off-white power
same,XRD,[1],Same as day 0
same,DSC,[2],170.23 °C
same,Moisture %,[2],0.54%
same,Total related %,[2],0.24%
same,Trait,[2],Off-white power
same,XRD,[2],Same as day 0
same,DSC,"40° C., RH 75%, closed, 1 M",170.38 °C
same,Moisture %,"40° C., RH 75%, closed, 1 M",0.57%
same,Total related %,"40° C., RH 75%, closed, 1 M",0.22%
same,Trait,"40° C., RH 75%, closed, 1 M",Off-white power
same,XRD,"40° C., RH 75%, closed, 1 M",Same as day 0
same,DSC,"40° C., RH 75%, opened, 1 M",170.32 °C
same,Moisture %,"40° C., RH 75%, opened, 1 M",0.46%
same,Total related %,"40° C., RH 75%, opened, 1 M",0.24%
same,Trait,"40° C., RH 75%, opened, 1 M",Off-white power
same,XRD,"40° C., RH 75%, opened, 1 M",Same as day 0
same,DSC,"60° C., closed, 10 days",170.34 °C
same,Moisture %,"60° C., closed, 10 days",0.61%
same,Total related %,"60° C., closed, 10 days",0.24%
same,Trait,"60° C., closed, 10 days",Off-white power
same,XRD,"60° C., closed, 10 days",Same as day 0
same,DSC,"60° C., opened, 10 days",170.26 °C
same,Moisture %,"60° C., opened, 10 days",0.54%
same,Total related %,"60° C., opened, 10 days",0.25%
same,Trait,"60° C., opened, 10 days",Off-white power
same,XRD,"60° C., opened, 10 days",Same as day 0
same,DSC,"105° C., opened, 5 days",170.65 °C
same,Moisture %,"105° C., opened, 5 days",0.54%
same,Total related %,"105° C., opened, 5 days",0.30%
same,Trait,"105° C., opened, 5 days",Off-white power
same,XRD,"105° C., opened, 5 days",Same as day 0
same,DSC,Avoid light for 18 days,170.20 °C
same,Moisture %,Avoid light for 18 days,0.47%
same,Total related %,Avoid light for 18 days,0.19%
same,Trait,Avoid light for 18 days,Off-white power
same,XRD,Avoid light for 18 days,Same as day 0
same,"Stability, testing conclusion",,relatively stable
"C[C@H]1CCN1c1nc(N2C[C@@H]3[C@@H](CC(=O)O)[C@@H]3C2)c2c(n1)C(F)(F)CC2 [Crystal form B, 2-((1R,5S,6R)-3-(7,7-difluoro-2-((S)-2-methylazetidin-1-yl)-6,7-dihydro-5H-cyclopenta[d]pyrimidin-4-yl)-3-azabicyclo[3.1.0]hexan-6-yl)acetic acid]",DSC,0 day,169.28 °C
same,Moisture %,0 day,0.17%
same,Total related %,0 day,0.08%
same,Trait,0 day,White powder
same,DSC,[1],169.47 °C
same,Moisture %,[1],0.35%
same,Total related %,[1],0.10%
same,Trait,[1],White powder
same,XRD,[1],Same as day 0
same,DSC,[2],169.31 °C
same,Moisture %,[2],0.26%
same,Total related %,[2],0.10%
same,Trait,[2],White powder
same,XRD,[2],Same as day 0
same,DSC,"40° C., RH 75%, closed, 1 M",169.57 °C
same,Moisture %,"40° C., RH 75%, closed, 1 M",0.39%
same,Total related %,"40° C., RH 75%, closed, 1 M",0.08%
same,Trait,"40° C., RH 75%, closed, 1 M",White powder
same,XRD,"40° C., RH 75%, closed, 1 M",Same as day 0
same,DSC,"40° C., RH 75%, opened, 1 M",169.43 °C
same,Moisture %,"40° C., RH 75%, opened, 1 M",0.35%
same,Total related %,"40° C., RH 75%, opened, 1 M",0.09%
same,Trait,"40° C., RH 75%, opened, 1 M",White powder
same,XRD,"40° C., RH 75%, opened, 1 M",Same as day 0
same,DSC,"60° C., closed, 10 days",169.35 °C
same,Moisture %,"60° C., closed, 10 days",0.21%
same,Total related %,"60° C., closed, 10 days",0.11%
same,Trait,"60° C., closed, 10 days",White powder
same,XRD,"60° C., closed, 10 days",Same as day 0
same,DSC,"60° C., opened, 10 days",169.27 °C
same,Moisture %,"60° C., opened, 10 days",0.26%
same,Total related %,"60° C., opened, 10 days",0.13%
same,Trait,"60° C., opened, 10 days",White powder
same,XRD,"60° C., opened, 10 days",Same as day 0
same,DSC,"105° C., opened, 5 days",169.53 °C ° C.
same,Moisture %,"105° C., opened, 5 days",0.28%
same,Total related %,"105° C., opened, 5 days",0.22%
same,Trait,"105° C., opened, 5 days",White powder
same,XRD,"105° C., opened, 5 days",Same as day 0
same,DSC,Avoid light for 18 days,169.15 °C
same,Moisture %,Avoid light for 18 days,0.17%
same,Total related %,Avoid light for 18 days,0.07%
same,Trait,Avoid light for 18 days,White powder
same,XRD,Avoid light for 18 days,Same as day 0
same,"Stability, testing conclusion",,relatively stable
"C[C@H]1CCN1c1nc(N2C[C@@H]3[C@@H](CC(=O)O)[C@@H]3C2)c2c(n1)C(F)(F)CC2 [Crystal form C, 2-((1R,5S,6R)-3-(7,7-difluoro-2-((S)-2-methylazetidin-1-yl)-6,7-dihydro-5H-cyclopenta[d]pyrimidin-4-yl)-3-azabicyclo[3.1.0]hexan-6-yl)acetic acid]",DSC,0 day,172.44 °C
same,Moisture %,0 day,0.24%
same,Total related %,0 day,1.25%
same,Trait,0 day,Off-white power
same,DSC,[1],172.36 °C
same,Moisture %,[1],0.09%
same,Total related %,[1],1.06%
same,Trait,[1],Off-white power
same,XRD,[1],Same as day 0
same,DSC,[2],172.35 °C
same,Moisture %,[2],0.11%
same,Total related %,[2],1.07%
same,Trait,[2],Off-white power
same,XRD,[2],Same as day 0
same,DSC,"40° C., RH 75%, closed, 1 M",172.36 °C
same,Moisture %,"40° C., RH 75%, closed, 1 M",0.19%
same,Total related %,"40° C., RH 75%, closed, 1 M",1.30%
same,Trait,"40° C., RH 75%, closed, 1 M",Off-white power
same,XRD,"40° C., RH 75%, closed, 1 M",Same as day 0
same,DSC,"40° C., RH 75%, opened, 1 M",172.35 °C
same,Moisture %,"40° C., RH 75%, opened, 1 M",0.13%
same,Total related %,"40° C., RH 75%, opened, 1 M",1.31%
same,Trait,"40° C., RH 75%, opened, 1 M",Off-white power
same,XRD,"40° C., RH 75%, opened, 1 M",Same as day 0
same,DSC,"60° C., closed, 10 days",172.21 °C
same,Moisture %,"60° C., closed, 10 days",0.08%
same,Total related %,"60° C., closed, 10 days",2.20%
same,Trait,"60° C., closed, 10 days",Off-white power
same,XRD,"60° C., closed, 10 days",Same as day 0
same,DSC,"60° C., opened, 10 days",172.21 °C
same,Moisture %,"60° C., opened, 10 days",0.08%
same,Total related %,"60° C., opened, 10 days",2.09%
same,Trait,"60° C., opened, 10 days",Off-white power
same,XRD,"60° C., opened, 10 days",Same as day 0
same,"Total related substances, change",105° C. for 5 days and 60° C. for 10 days,slightly increased
same,DSC,"105° C., opened, 5 days",171.85 °C
same,Moisture %,"105° C., opened, 5 days",0.24%
same,Total related %,"105° C., opened, 5 days",1.77%
same,Trait,"105° C., opened, 5 days",Off-white power
same,XRD,"105° C., opened, 5 days",Same as day 0
same,DSC,Avoid light for 18 days,172.42 °C
same,Moisture %,Avoid light for 18 days,0.13%
same,Total related %,Avoid light for 18 days,1.25%
same,Trait,Avoid light for 18 days,Off-white power
same,XRD,Avoid light for 18 days,Same as day 0
same,"Related substances, content, moisture, and XRD stability","opened/closed, 25° C. and RH 92.5% for 10 days, 40° C. and RH 75% for one month",good
